The data set in a line: Erythrosin B dye exclusion viability test, THP-1. Type of data set: cell-based. The settings on record: human, THP-1 cells; erythrosin B exclusion test, 24 h, mean ± SD; read-out: THP-1 LC50.

SMILES strings stand for the structures.

Turning to `O=C(Nc1cccc([N+](=O)[O-])c1)c1cc2ccccc2cc1O` [Compound 2, 3-hydroxy-N-(3-nitrophenyl)naphthalene-2-carboxamide], the CC50 at 24 h is 7.91 ± 0.24 µM.

Values taken from article PMC5000617, “Antiproliferative and Pro-Apoptotic Effect of Novel Nitro-Substituted Hydroxynaphthanilides on Human Cancer Cell Lines” (International Journal of Molecular Sciences, 2016).
